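Exposure lasted 48 hours, with cells grown in 96-well plates and compounds tested at five concentrations. TGI: total growth inhibition.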
Legend:
Assay in all cases: NCI-60 cell line screen, 48 h
SR leukemia = test system: SR leukemia
HCT-116 colon = test system: HCT-116 colon
UACC-257 melanoma = test system: UACC-257 melanoma
HS 578T breast = test system: HS 578T breast
MALME-3M melanoma = test system: MALME-3M melanoma
CCRF-CEM leukemia = test system: CCRF-CEM leukemia
NCI-H23 lung = test system: NCI-H23 lung
SK-MEL-28 melanoma = test system: SK-MEL-28 melanoma
TK-10 renal = test system: TK-10 renal
T-47D breast = test system: T-47D breast
OVCAR-3 ovarian = test system: OVCAR-3 ovarian
NCI-H460 lung = test system: NCI-H460 lung
HCC-2998 colon = test system: HCC-2998 colon
SK-MEL-2 melanoma = test system: SK-MEL-2 melanoma
A549 NSCLC = test system: A549 NSCLC
SW-620 colon = test system: SW-620 colon
SN12C renal = test system: SN12C renal
MDA-N = test system: MDA-N
SK-OV-3 ovarian = test system: SK-OV-3 ovarian
OVCAR-4 ovarian = test system: OVCAR-4 ovarian
HOP-92 NSCLC = test system: HOP-92 NSCLC
SNB-19 CNS = test system: SNB-19 CNS
A498 renal = test system: A498 renal
M14 melanoma = test system: M14 melanoma
UACC-62 melanoma = test system: UACC-62 melanoma
SF-295 CNS = test system: SF-295 CNS
HCT-15 colon = test system: HCT-15 colon
UO-31 renal = test system: UO-31 renal
RXF 393 renal = test system: RXF 393 renal
OVCAR-8 ovarian = test system: OVCAR-8 ovarian
NCI-H226 lung = test system: NCI-H226 lung
U251 CNS = test system: U251 CNS
NCI/ADR-RES ovarian = test system: NCI/ADR-RES ovarian
MCF7 breast = test system: MCF7 breast
EKVX NSCLC = test system: EKVX NSCLC
SNB-75 CNS = test system: SNB-75 CNS
MDA-MB-435 = test system: MDA-MB-435
SK-MEL-5 melanoma = test system: SK-MEL-5 melanoma
KM12 colon = test system: KM12 colon
OVCAR-5 ovarian = test system: OVCAR-5 ovarian
DU-145 prostate = test system: DU-145 prostate
RPMI-8226 leukemia = test system: RPMI-8226 leukemia
MDA-MB-231 breast = test system: MDA-MB-231 breast
HT29 colon = test system: HT29 colon
PC-3 prostate = test system: PC-3 prostate
ACHN renal = test system: ACHN renal
CAKI-1 renal = test system: CAKI-1 renal
BT-549 breast = test system: BT-549 breast
SF-268 CNS = test system: SF-268 CNS
COLO 205 colon = test system: COLO 205 colon
HOP-62 NSCLC = test system: HOP-62 NSCLC
IGROV1 ovarian = test system: IGROV1 ovarian
LOX IMVI melanoma = test system: LOX IMVI melanoma
K-562 leukemia = test system: K-562 leukemia
786-0 renal = test system: 786-0 renal
MOLT-4 leukemia = test system: MOLT-4 leukemia
SF-539 CNS = test system: SF-539 CNS
NCI-H522 lung = test system: NCI-H522 lung

S=C(NCCc1ccccn1)c1nc[nH]c1C(=S)NCCc1ccccn1 was tested, and the TGI (SR leukemia) was > 100 µM, the TGI (HCT-116 colon) was > 100 µM and the TGI (UACC-257 melanoma) was > 100 µM. The TGI (HS 578T breast) was 68.1 µM, the TGI (MALME-3M melanoma) was > 100 µM and the TGI (CCRF-CEM leukemia) was 81.1 µM. For the same molecule, the TGI (NCI-H23 lung) was > 100 µM, the TGI (SK-MEL-28 melanoma) was > 100 µM and the TGI (TK-10 renal) was > 100 µM. The TGI (T-47D breast) was 60.6 µM, the TGI (OVCAR-3 ovarian) was > 100 µM and the TGI (NCI-H460 lung) was 64.6 µM. The TGI (HCC-2998 colon) was > 100 µM, the TGI (SK-MEL-2 melanoma) was > 100 µM and the TGI (A549 NSCLC) was > 100 µM. For the same molecule, the TGI (SW-620 colon) was > 100 µM, the TGI (SN12C renal) was > 100 µM and the TGI (MDA-N) was > 100 µM. For the same molecule, the TGI (SK-OV-3 ovarian) was > 100 µM, the TGI (OVCAR-4 ovarian) was > 100 µM and the TGI (HOP-92 NSCLC) was > 100 µM. The TGI (SNB-19 CNS) was > 100 µM, the TGI (A498 renal) was > 100 µM and the TGI (M14 melanoma) was > 100 µM. The TGI (UACC-62 melanoma) was 56.2 µM, the TGI (SF-295 CNS) was > 100 µM and the TGI (HCT-15 colon) was > 100 µM. The TGI (UO-31 renal) was > 100 µM, the TGI (RXF 393 renal) was 87.9 µM and the TGI (OVCAR-8 ovarian) was 82.4 µM. For the same molecule, the TGI (NCI-H226 lung) was > 100 µM, the TGI (U251 CNS) was > 100 µM and the TGI (NCI/ADR-RES ovarian) was 65.1 µM. For the same molecule, the TGI (MCF7 breast) was > 100 µM, the TGI (EKVX NSCLC) was > 100 µM and the TGI (SNB-75 CNS) was 83.3 µM. The TGI (MDA-MB-435) was > 100 µM, the TGI (SK-MEL-5 melanoma) was > 100 µM and the TGI (KM12 colon) was > 100 µM. For the same molecule, the TGI (OVCAR-5 ovarian) was > 100 µM, the TGI (DU-145 prostate) was > 100 µM and the TGI (RPMI-8226 leukemia) was > 100 µM. For the same molecule, the TGI (MDA-MB-231 breast) was > 100 µM, the TGI (HT29 colon) was > 100 µM and the TGI (PC-3 prostate) was > 100 µM. For the same molecule, the TGI (ACHN renal) was > 100 µM, the TGI (CAKI-1 renal) was > 100 µM and the TGI (BT-549 breast) was > 100 µM. The TGI (SF-268 CNS) was > 100 µM, the TGI (COLO 205 colon) was > 100 µM and the TGI (HOP-62 NSCLC) was > 100 µM. For the same molecule, the TGI (IGROV1 ovarian) was > 100 µM, the TGI (LOX IMVI melanoma) was 45.5 µM and the TGI (K-562 leukemia) was > 100 µM. For the same molecule, the TGI (786-0 renal) was > 100 µM.

CN(C)CCNC(=O)c1cccc2c(NC(CCCN=C(N)N)C(=O)O)c3ccccc3[n+](C)c12 (stereo not given) was tested, and the TGI (SR leukemia) was > 100 µM, the TGI (HCT-116 colon) was > 100 µM and the TGI (UACC-257 melanoma) was > 100 µM. For the same molecule, the TGI (HS 578T breast) was > 100 µM, the TGI (MALME-3M melanoma) was > 100 µM and the TGI (NCI-H23 lung) was > 100 µM. For the same molecule, the TGI (SK-MEL-28 melanoma) was > 100 µM, the TGI (TK-10 renal) was > 100 µM and the TGI (T-47D breast) was > 100 µM. For the same molecule, the TGI (OVCAR-3 ovarian) was > 100 µM, the TGI (NCI-H460 lung) was > 100 µM and the TGI (HCC-2998 colon) was > 100 µM. For the same molecule, the TGI (SK-MEL-2 melanoma) was > 100 µM, the TGI (A549 NSCLC) was > 100 µM and the TGI (SW-620 colon) was > 100 µM. The TGI (SN12C renal) was > 100 µM, the TGI (MDA-N) was > 100 µM and the TGI (SK-OV-3 ovarian) was > 100 µM. The TGI (OVCAR-4 ovarian) was > 100 µM, the TGI (SNB-19 CNS) was > 100 µM and the TGI (A498 renal) was > 100 µM. For the same molecule, the TGI (M14 melanoma) was > 100 µM, the TGI (UACC-62 melanoma) was > 100 µM and the TGI (MOLT-4 leukemia) was > 100 µM. The TGI (SF-295 CNS) was > 100 µM, the TGI (HCT-15 colon) was > 100 µM and the TGI (UO-31 renal) was > 100 µM. The TGI (OVCAR-8 ovarian) was > 100 µM, the TGI (NCI-H226 lung) was 94.5 µM and the TGI (U251 CNS) was > 100 µM. For the same molecule, the TGI (NCI/ADR-RES ovarian) was 80.9 µM, the TGI (MCF7 breast) was > 100 µM and the TGI (EKVX NSCLC) was > 100 µM. The TGI (SF-539 CNS) was > 100 µM, the TGI (SNB-75 CNS) was > 100 µM and the TGI (MDA-MB-435) was > 100 µM. For the same molecule, the TGI (SK-MEL-5 melanoma) was > 100 µM, the TGI (KM12 colon) was > 100 µM and the TGI (OVCAR-5 ovarian) was > 100 µM. For the same molecule, the TGI (DU-145 prostate) was > 100 µM, the TGI (RPMI-8226 leukemia) was > 100 µM and the TGI (MDA-MB-231 breast) was > 100 µM. The TGI (HT29 colon) was > 100 µM, the TGI (PC-3 prostate) was > 100 µM and the TGI (ACHN renal) was > 100 µM. For the same molecule, the TGI (BT-549 breast) was > 100 µM, the TGI (SF-268 CNS) was 92.6 µM and the TGI (COLO 205 colon) was > 100 µM. For the same molecule, the TGI (HOP-62 NSCLC) was > 100 µM, the TGI (IGROV1 ovarian) was > 100 µM and the TGI (LOX IMVI melanoma) was > 100 µM. The TGI (K-562 leukemia) was > 100 µM and the TGI (786-0 renal) was > 100 µM.

For O=C1/C(=C\c2cccc(Oc3ccccc3)c2)S(=O)(=O)C(c2ccccc2)N1c1cc(Cl)ccc1Cl (stereo not given), the TGI (SR leukemia) was > 100 µM, the TGI (HCT-116 colon) was 21.2 µM and the TGI (UACC-257 melanoma) was 47.9 µM. For the same molecule, the TGI (HS 578T breast) was 88.1 µM, the TGI (MALME-3M melanoma) was 42.4 µM and the TGI (CCRF-CEM leukemia) was 40.7 µM. The TGI (NCI-H23 lung) was 44.3 µM, the TGI (SK-MEL-28 melanoma) was 36.7 µM and the TGI (TK-10 renal) was 57.3 µM. The TGI (T-47D breast) was 82.4 µM, the TGI (OVCAR-3 ovarian) was 41.9 µM and the TGI (NCI-H460 lung) was > 100 µM. For the same molecule, the TGI (HCC-2998 colon) was 56.6 µM, the TGI (SK-MEL-2 melanoma) was 76.9 µM and the TGI (A549 NSCLC) was > 100 µM. The TGI (SW-620 colon) was 10.8 µM, the TGI (SN12C renal) was 35 µM and the TGI (MDA-N) was 28.8 µM. The TGI (SK-OV-3 ovarian) was 88.3 µM, the TGI (OVCAR-4 ovarian) was > 100 µM and the TGI (HOP-92 NSCLC) was 40.4 µM. For the same molecule, the TGI (SNB-19 CNS) was 35.7 µM, the TGI (A498 renal) was > 100 µM and the TGI (M14 melanoma) was 44.1 µM. The TGI (UACC-62 melanoma) was 36.7 µM, the TGI (MOLT-4 leukemia) was > 100 µM and the TGI (SF-295 CNS) was 33.1 µM. For the same molecule, the TGI (HCT-15 colon) was 74.6 µM, the TGI (UO-31 renal) was 39.6 µM and the TGI (RXF 393 renal) was 33.8 µM. For the same molecule, the TGI (OVCAR-8 ovarian) was 32.7 µM, the TGI (U251 CNS) was > 100 µM and the TGI (NCI/ADR-RES ovarian) was 94.4 µM. For the same molecule, the TGI (MCF7 breast) was 45.1 µM, the TGI (EKVX NSCLC) was > 100 µM and the TGI (SF-539 CNS) was > 100 µM. It also gave a TGI (SNB-75 CNS) of 69.6 µM, a TGI (MDA-MB-435) of 36.5 µM and a TGI (SK-MEL-5 melanoma) of 33.3 µM. The TGI (KM12 colon) was 76.9 µM, the TGI (OVCAR-5 ovarian) was 58.6 µM and the TGI (DU-145 prostate) was 76.7 µM. For the same molecule, the TGI (RPMI-8226 leukemia) was > 100 µM, the TGI (MDA-MB-231 breast) was > 100 µM and the TGI (HT29 colon) was > 100 µM. The TGI (PC-3 prostate) was > 100 µM, the TGI (ACHN renal) was 44.6 µM and the TGI (NCI-H522 lung) was 40 µM. The TGI (CAKI-1 renal) was > 100 µM, the TGI (BT-549 breast) was 35.6 µM and the TGI (SF-268 CNS) was 42.3 µM. The TGI (COLO 205 colon) was 48.4 µM, the TGI (HOP-62 NSCLC) was 43.3 µM and the TGI (IGROV1 ovarian) was 56.2 µM. The TGI (LOX IMVI melanoma) was 23.8 µM, the TGI (K-562 leukemia) was > 100 µM and the TGI (786-0 renal) was 37.4 µM.

From PubChem BioAssay (NCI)
